Values of other authors in patent publication US10258642B2, “Dextran sulfate for use in mobilization of cells” (TX MEDIC AB, priority 2013, dated 2019).
Where two headings read alike, the source gives them in different places.

Tests used:
CFU-GM = conditions: cited from earlier work
[1] = tested on: colony forming cells (CFCs); conditions: mice (Sweeney 2000, 2002); cited from earlier work
[2] = tested on: colony forming cells (CFCs); conditions: monkeys (Sweeney 2000, 2002); cited from earlier work

dextran sulfate [dextran sulfate 10 kDa]
CFU-GM level (CFU-GM; colonies with >50 cells, G-CSF 10 μg/kg daily for five days and/or dextran sulfate 15 mg/kg once on day 5 (Han 1998)): 12.9±1.6 colonies
time of peaks in peripheral WBC, MNC and CFU-GM (CFU-GM; i.v. injection of 15-30 mg, mice (Han 1998)): 2 to 5 h
time of CFC mobilization after dextran sulfate administration [1]: 3 h
time of CFC mobilization after dextran sulfate administration [2]: 6 h
